{"source": "ChEMBL document CHEMBL1201862", "about": "“PubChem BioAssay data set” (2004)", "key": {"cells [1]": {"assay": "cells", "assay_type": "functional"}, "H4": {"system": "H4", "assay": "Luminescence Cell-Based Dose Response HTS to Identify Activators of 5'UTR Stem-Loop Driven Prion Protein mRNA Translation in H4 Neuroglioblastoma Cells. [Related pubchem assays: 1829 (Project Summary), 1814 (Primary HTS)]", "assay_type": "functional", "conditions": "Homo sapiens"}, "[2]": {"assay": "Luminescence Cell-Based Dose Confirmation HTS to Identify Activators of 5'UTR Stem-Loop Driven Alpha-Synuclein mRNA Translation in H4 Neuroglioblastoma Cells. [Related pubchem assays: 1829 (Project Summary), 1814 (Primary HTS)]", "assay_type": "functional"}, "[3]": {"assay": "Luminescence Cell-Based Dose Response HTS to Identify Activators of Luciferase Translation or Activity in H4 […] Cells. [Related pubchem assays: 1829 (Project Summary), 1814 (Primary HTS)]", "assay_type": "functional"}, "[4]": {"assay": "THP-1 cell cytotoxicity, dose response, cytotoxicity control for non-replicating M. tuberculosis project (AID 489025)", "assay_type": "functional"}, "[5]": {"assay": "A Cell Based Secondary Assay To Explore Cytotoxicity of Compounds that Sensitize Mycobacterium Tuberculosis to Beta-Lactam Antibiotics.", "assay_type": "functional"}, "[6]": {"assay": "cytotoxicity toward NIH3T3 fibroblasts, dose response, counter-screen, cell-based, ATP luminescence, mouse fibroblasts (AID 2010);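 also: cells exposed to compound for about 90 hours before reading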", "assay_type": "functional"}, "[7]": {"assay": "inhibitors of intracellular T. cruzi replication, confirmation, NIH3T3 host cells, beta-gal luminescence (AID 2044);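 also: luminescent beta-galactosidase reporter signal from transgenic T. cruzi replicating inside host cells; inhibitors lower the luminescence signal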", "assay_type": "functional, cell-based"}, "[8]": {"biological_target": "T1, Microphthalmia-associated transcription factor (Homo sapiens, UniProt O75030)", "T1 sequence (O75030 whole entry)": "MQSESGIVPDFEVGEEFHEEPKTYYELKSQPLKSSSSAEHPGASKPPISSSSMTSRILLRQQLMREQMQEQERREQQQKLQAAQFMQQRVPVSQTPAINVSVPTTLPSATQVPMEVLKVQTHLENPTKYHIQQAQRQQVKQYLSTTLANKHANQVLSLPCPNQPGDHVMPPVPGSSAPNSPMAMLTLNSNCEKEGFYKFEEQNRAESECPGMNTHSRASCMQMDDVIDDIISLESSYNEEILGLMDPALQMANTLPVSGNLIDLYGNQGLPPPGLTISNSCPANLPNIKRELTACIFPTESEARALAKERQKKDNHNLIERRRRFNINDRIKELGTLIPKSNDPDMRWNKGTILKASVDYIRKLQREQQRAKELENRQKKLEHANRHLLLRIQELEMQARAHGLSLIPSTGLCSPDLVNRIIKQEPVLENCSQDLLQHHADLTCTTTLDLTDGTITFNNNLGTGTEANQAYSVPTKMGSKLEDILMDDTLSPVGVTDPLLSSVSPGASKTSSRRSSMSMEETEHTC", "assay": "TRPM1 promoter luciferase signal decrease, dose response, MITF inhibitor project, cell-based, SK-MEL-5, cherry-picked, set 3 (AID 493073)", "assay_type": "functional"}, "cells [9]": {"assay": "cells", "assay_type": "functional, cell-based"}, "cells [10]": {"assay": "cells", "assay_type": "functional, cell-based", "remark": "listed apart in the source"}, "INS1": {"system": "INS1", "assay": "beta cell apoptosis inhibitors, cytokine rescue, dose response, luminescence, retest (AID 449756);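 also: cell death triggered by IL-1 beta plus TNF-alpha plus IFN-gamma mixture; protective hits raise ATP signal compared with cytokine alone wells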", "assay_type": "functional, cell-based", "conditions": "Rattus norvegicus, INS1"}, "[11]": {"biological_target": "DNA damage-inducible transcript 3 protein (Mus musculus, UniProt P35639)", "sequence (P35639 whole entry)": "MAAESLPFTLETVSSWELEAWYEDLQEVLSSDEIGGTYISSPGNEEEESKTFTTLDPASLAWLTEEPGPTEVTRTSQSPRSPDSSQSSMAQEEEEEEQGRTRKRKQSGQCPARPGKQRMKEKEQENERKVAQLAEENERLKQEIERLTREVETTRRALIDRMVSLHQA", "assay_type": "functional, Cricetulus griseus"}, "[12]": {"biological_target": "T2, Ubiquitin-conjugating enzyme E2 N (Homo sapiens, UniProt P61088)", "T2 sequence (P61088 whole entry)": "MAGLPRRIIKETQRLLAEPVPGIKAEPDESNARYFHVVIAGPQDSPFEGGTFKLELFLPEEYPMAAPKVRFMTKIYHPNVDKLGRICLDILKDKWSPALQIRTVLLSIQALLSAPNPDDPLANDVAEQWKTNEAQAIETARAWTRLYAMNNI", "assay_type": "functional"}, "Bcl-2-related protein A1": {"biological_target": "T3, Bcl-2-related protein A1 (Mus musculus, UniProt Q07440)", "T3 sequence (Q07440 whole entry)": "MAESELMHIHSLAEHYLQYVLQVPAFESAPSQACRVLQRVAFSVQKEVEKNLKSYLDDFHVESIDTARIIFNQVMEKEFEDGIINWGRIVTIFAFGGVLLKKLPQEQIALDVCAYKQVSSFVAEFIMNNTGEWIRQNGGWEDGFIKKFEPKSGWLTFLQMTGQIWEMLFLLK", "assay_type": "functional"}, "[13]": {"biological_target": "T4, Rac GTPase-activating protein 1 (Homo sapiens, UniProt Q9H0H5)", "T4 sequence (Q9H0H5 whole entry)": "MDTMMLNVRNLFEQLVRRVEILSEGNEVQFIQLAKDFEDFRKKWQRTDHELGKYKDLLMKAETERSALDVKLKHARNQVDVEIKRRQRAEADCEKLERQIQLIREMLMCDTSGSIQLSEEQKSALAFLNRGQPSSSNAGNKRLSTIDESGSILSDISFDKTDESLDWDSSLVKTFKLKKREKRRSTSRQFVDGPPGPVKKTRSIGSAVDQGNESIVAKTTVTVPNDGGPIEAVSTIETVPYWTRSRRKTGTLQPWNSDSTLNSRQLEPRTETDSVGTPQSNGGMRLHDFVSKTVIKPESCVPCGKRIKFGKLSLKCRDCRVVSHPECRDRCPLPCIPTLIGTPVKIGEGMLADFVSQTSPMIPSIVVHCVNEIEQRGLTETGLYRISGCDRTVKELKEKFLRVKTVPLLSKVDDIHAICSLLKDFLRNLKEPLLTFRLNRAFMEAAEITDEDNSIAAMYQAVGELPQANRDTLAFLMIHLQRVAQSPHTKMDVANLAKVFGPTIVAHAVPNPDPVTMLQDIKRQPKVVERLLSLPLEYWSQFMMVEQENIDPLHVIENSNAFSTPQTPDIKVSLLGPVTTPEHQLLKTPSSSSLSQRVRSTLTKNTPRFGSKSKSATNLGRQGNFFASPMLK", "assay": "MgcRacGAP GTPase-activating activity inhibitors, confirmation, biochemical, ADP Hunter fluorescence, primary and confirmatory (AID 624330)", "assay_type": "functional"}, "[14]": {"system": "Streptococcus sp. 'group A'", "assay": "growth inhibition of control SK(-) GAS strain, dose response, counter-screen for streptokinase expression inhibitor project, luminescence, kanamycin, BacTiterGlo, confirmation (AID 1900)", "assay_type": "functional, organism-based"}, "[15]": {"assay": "microbe, parasite or virus in culture", "assay_type": "functional", "conditions": "Mycobacterium tuberculosis"}, "Streptokinase A": {"biological_target": "T5, Streptokinase A (Streptococcus pyogenes serotype M1, UniProt P10520)", "T5 sequence (P10520 whole entry)": "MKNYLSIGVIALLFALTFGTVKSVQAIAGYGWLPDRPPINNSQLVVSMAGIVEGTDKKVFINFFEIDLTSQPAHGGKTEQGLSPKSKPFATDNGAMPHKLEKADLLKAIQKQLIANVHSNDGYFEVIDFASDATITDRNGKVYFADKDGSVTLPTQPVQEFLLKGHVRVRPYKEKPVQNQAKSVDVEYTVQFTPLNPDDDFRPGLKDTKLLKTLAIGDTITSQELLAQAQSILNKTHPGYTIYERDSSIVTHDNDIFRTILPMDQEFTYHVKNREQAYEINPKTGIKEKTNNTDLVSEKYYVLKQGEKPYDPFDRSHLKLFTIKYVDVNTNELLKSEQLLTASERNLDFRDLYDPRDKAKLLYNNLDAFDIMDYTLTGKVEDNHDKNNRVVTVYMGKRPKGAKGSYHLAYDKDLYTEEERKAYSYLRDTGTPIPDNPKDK", "assay": "S. pyogenes streptokinase expression inhibitors, potency, dose response, plasminogen activation absorbance, OD405 (AID 1914);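 also: secreted streptokinase activity via plasminogen activation per viability signal from cell pellet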", "assay_type": "functional, Streptococcus pyogenes M1 GAS"}, "Streptococcus": {"system": "Streptococcus", "assay": "Group A Streptococcus viability loss, dose response, counter-screen for streptokinase expression inhibitor project, luminescence, BacTiterGlo (AID 1915);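 also: potency for reduction of bacterial viability or growth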", "assay_type": "functional, organism-based"}}, "note": "Activity calls are given as the source filed them.", "data": [{"compound": "CCc1ccc(N2NC(=O)/C(=C/C=C/c3ccco3)C2=O)cc1", "values": [{"measurement": "IC50", "setting": "cells [1]", "result": "12.1 µM (active)"}, {"measurement": "EC50", "setting": "H4", "result": "14.3 µM (active)"}, {"measurement": "EC50", "setting": "[2]", "result": "14.8 µM (active)"}, {"measurement": "EC50", "setting": "[3]", "result": "48 µM (active)"}, {"measurement": "CC50", "setting": "[4]", "result": "> 40 µM (active)"}]}, {"compound": "CCOC(=O)c1sc2ccccc2c1NC(=O)c1coc2ccccc2c1=O", "values": [{"measurement": "CC50", "setting": "[5]", "result": "> 40 µM (active)"}, {"measurement": "EC50", "setting": "H4", "result": "> 120 µM (not active)"}, {"measurement": "EC50", "setting": "[2]", "result": "> 120 µM (not active)"}, {"measurement": "EC50", "setting": "[3]", "result": "16.9 µM (active)"}]}, {"compound": "COc1ccc(NC(C)C(=O)N/N=C/c2ccc([N+](=O)[O-])s2)cc1", "note": "(stereo not given)", "values": [{"measurement": "CC50", "setting": "[5]", "result": "21.8 µM (active)"}, {"measurement": "EC50", "setting": "[6]", "result": "> 60 µM (inconclusive)"}, {"measurement": "EC50", "setting": "[7]", "result": "0.414 µM (active)"}, {"measurement": "AC50", "setting": "[8]", "result": "15.8 µM (active)"}]}, {"compound": "COc1cccc(CN2CCC(N(CCc3ccccc3)Cc3ccccc3)CC2)c1OC", "values": [{"measurement": "IC50", "setting": "cells [1]", "result": "25.2 µM (active)"}, {"measurement": "EC50", "setting": "cells [9]", "result": "> 350 µM (not active)"}, {"measurement": "EC50", "setting": "cells [10]", "result": "> 350 µM (not active)"}, {"measurement": "AC50", "setting": "INS1", "result": "11.4 µM (active)"}, {"measurement": "CC50", "setting": "[4]", "result": "> 40 µM (active)"}]}, {"compound": "CCOc1ccc2nc(NC(=O)CSc3nnnn3C3CCCCC3)sc2c1", "values": [{"measurement": "EC50", "setting": "[6]", "result": "> 30 µM (not active)"}, {"measurement": "EC50", "setting": "[7]", "result": "2.14 µM (active)"}, {"measurement": "Absolute IC50 (CHOP)", "setting": "[11]", "result": 10, "unit": "µM"}]}, {"compound": "C#CCOCCOCCOCCNc1nc(N2CCN(C(=O)C([C@@H](C)O)n3cc([C@@H](N)CCCCN)nn3)CC2)nc(N2CCN(C(=O)[C@H](CCCCN)n3cc(CN)nn3)CC2)n1", "note": "(stereo not given in full)", "values": [{"measurement": "IC50", "setting": "[12]", "result": "3.7 µM (active)"}, {"measurement": "IC50", "setting": "Bcl-2-related protein A1", "result": "> 20 µM (inactive)"}, {"measurement": "IC50", "setting": "[13]", "result": "171 µM (active)"}]}, {"compound": "Cc1cc(N2CCC(C)CC2)nc(-n2nc(C)cc2C)n1", "values": [{"measurement": "IC50", "setting": "cells [1]", "result": "0.15 µM (active)"}, {"measurement": "EC50", "setting": "[14]", "result": "7.26 µM (active)"}, {"measurement": "CC50", "setting": "[15]", "result": "> 40 µM (active)"}, {"measurement": "EC50", "setting": "Streptokinase A", "result": "> 150 µM (not active)"}, {"measurement": "EC50", "setting": "Streptococcus", "result": "> 150 µM (not active)"}, {"measurement": "CC50", "setting": "[4]", "result": "> 40 µM (active)"}]}]}
